This note sets out measurements from ChEMBL document CHEMBL5505983, “Design, synthesis, and molecular modeling studies of novel 2-quinolone-1,2,3-triazole-α-aminophosphonates hybrids as dual antiviral and antibacterial agents” (Eur J Med Chem, 2024).

Data set [1] in a line: Cytotoxicity against human Huh-7 cells. It counts as toxicity, cell-based.
A short description of data set [2]: Cytotoxicity against human RD cells. It counts as toxicity, cell-based.
In data set [3] the test system is Staphylococcus aureus. Description: Antibacterial activity against Staphylococcus aureus CIP 54127 assessed as reduction in bacterial growth by micro-broth dilution method. It counts as functional.
In data set [4] the test system is Enterococcus faecalis. Description: Ratio of MBC to MIC for Enterococcus faecalis. It counts as functional.
The test system of data set [5] is Staphylococcus aureus. Nature of the data set: Bactericidal activity against Staphylococcus aureus CIP 54127. It counts as functional.
In data set [6] the test system is Zika virus. Nature of the data set: Antiviral activity against Zika virus infected in african green monkey Vero E6 cells assessed as inhibition of cytopathic effect by microscopy based analysis. The note with it: Vero C1008. It counts as functional, organism-based. For orientation: Damage to the host cells serves as the signal in cytopathic effect assays.
Data set [7] concerns Chikungunya virus. Description: Antiviral activity against CHIKV infected in African green monkey Vero A cells assessed as inhibition of cytopathic effect by microscopy based analysis. It counts as functional, organism-based.
Data set [8] concerns Yellow fever virus. Nature of the data set: Antiviral activity against Yellow fever virus infected in human Huh-7 cells assessed as inhibition of cytopathic effect by microscopy based analysis. It counts as functional, organism-based.
Data set [9] has as its system Human rhinovirus sp. Description: Antiviral activity against Human rhinovirus B14 infected in human HeLa-RH cells assessed as inhibition of cytopathic effect by microscopy based analysis. It counts as functional, organism-based.
In data set [10] the test system is Pseudomonas aeruginosa. Description: Antibacterial activity against Pseudomonas aeruginosa CIP A22 assessed as reduction in bacterial growth by micro-broth dilution method. It counts as functional. (In general: Dilution methods test growth across graded concentrations, often in twofold steps.)
Data set [11] can be described thus: Cytotoxicity against African green monkey Vero E6 cells. It counts as toxicity, cell-based, Vero C1008. The note with it: chlorocebus sabaeus.
Data set [12] can be described thus: Cytotoxicity against African green monkey Vero A cells. It counts as toxicity, cell-based. The note with it: chlorocebus sabaeus.
In data set [13] the test system is Pseudomonas aeruginosa. Description: Ratio of MBC to MIC for Pseudomonas aeruginosa CIP A22. It counts as functional.
The test system of data set [14] is Enterococcus faecalis. Nature of the data set: Bactericidal activity against Enterococcus faecalis. It counts as functional.
In data set [15] the test system is Staphylococcus aureus. Description: Ratio of MBC to MIC for Staphylococcus aureus CIP 54127. It counts as functional.
Data set [16] can be described thus: Cytotoxicity against human HeLa-RH cells. It counts as toxicity, cell-based.
The subject of data set [17] is Escherichia coli. Nature of the data set: Bactericidal activity against Escherichia coli CIP 53154. It counts as functional.
Data set [18] relates to Human rhinovirus sp. Nature of the data set: Antiviral activity against Human rhinovirus A2 infected in human HeLa-RH cells assessed as inhibition of cytopathic effect by microscopy based analysis. It counts as functional, organism-based.
For data set [19], the system named is Enterococcus faecalis. Nature of the data set: Antibacterial activity against Enterococcus faecalis assessed as reduction in bacterial growth by micro-broth dilution method. It counts as functional.
The test system of data set [20] is Pseudomonas aeruginosa. Description: Bactericidal activity against Pseudomonas aeruginosa CIP A22. It counts as functional.
The subject of data set [21] is Escherichia coli. Nature of the data set: Antibacterial activity against Escherichia coli CIP 53154 assessed as reduction in bacterial growth by micro-broth dilution method. It counts as functional.
Data set [22] deals with Enterovirus A71. Description: Antiviral activity against human EV71 infected in human RD cells assessed as inhibition of cytopathic effect by microscopy based analysis. It counts as functional, organism-based. The conditions noted are these: Enterovirus A.
In data set [23] the test system is Escherichia coli. Nature of the data set: Ratio of MBC to MIC for Escherichia coli CIP 53154. It counts as functional.

In brackets after ≈: the same amount, converted by molar mass.

Consider `CCOP(=O)(OCC)C(Nc1ccc(C)cc1)c1cc(Cn2cc(Cn3c(=O)cc(C)c4ccccc43)nn2)ccc1O` (centres undefined), for which the CC50 in data set [1] was 27.9 µM; in data set [2] it was more than 100 µM; in data set [11] it was more than 100 µM; in data set [12] it was more than 100 µM; in [16], more than 100 µM. The minimal inhibitory concentration (MIC) in data set [3] turned out to be 520 µM (≈ 313 µg/mL); in data set [10] it was 4160 µM (≈ 2500 µg/mL); in data set [19], 70 µM (≈ 42.1 µg/mL); in data set [21], 520 µM (≈ 313 µg/mL). Further, the Ratio in data set [4] is recorded as 1; in data set [13], 2; in data set [15], 1; in [23], 1. For the same molecule, the MBC is 520 µM (≈ 313 µg/mL) in [5], 70 µM (≈ 42.1 µg/mL) in [14], 520 µM (≈ 313 µg/mL) in data set [17] and 4160 µM (≈ 2500 µg/mL) in data set [20]. Moreover, the IC50 in data set [6] was more than 100 µM; in data set [7], more than 100 µM; in data set [8] it was more than 100 µM; in data set [9] it was more than 100 µM; in data set [18], more than 3.7 µM; in [22], more than 100 µM.

With `CCOP(=O)(OCC)C(Nc1ccccc1OC)c1cc(Cn2cc(Cn3c(=O)cc(C)c4ccccc43)nn2)ccc1O` (centres undefined), the CC50 was 51.8 µM in data set [1]; more than 100 µM in data set [2]; more than 33.3 µM in data set [11]; 77.2 µM in [12]; more than 33.3 µM in [16]. In addition, the MIC is 260 µM (≈ 161 µg/mL) in [3], 1020 µM (≈ 630 µg/mL) in [10], 2020 µM (≈ 1250 µg/mL) in data set [19] and 500 µM (≈ 309 µg/mL) in [21]. Further, the Ratio in data set [4] is 1; in [13] it was 1; in data set [15], 1.92; in data set [23], 2.04. Also, the minimum bactericidal concentration (MBC) in [5] amounted to 500 µM (≈ 309 µg/mL); in data set [14], 2020 µM (≈ 1250 µg/mL); in [17], 1020 µM (≈ 630 µg/mL); in data set [20], 1020 µM (≈ 630 µg/mL). Moreover, the IC50 was more than 100 µM in [6]; more than 100 µM in [7]; more than 100 µM in data set [8]; more than 100 µM in [9]; more than 1.23 µM in [18]; more than 100 µM in data set [22].

With `CCOP(=O)(OCC)C(Nc1ccc(C)cc1)c1cc(Cn2cc(Cn3c(=O)cc(C)c4cc(F)ccc43)nn2)ccc1O` (centres undefined), the CC50 in data set [1] is more than 100 µM; in data set [2], more than 100 µM; in [11] it was more than 100 µM; in data set [12], more than 33.3 µM; in [16], more than 100 µM. The MIC is 240 µM (≈ 149 µg/mL) in data set [3], 7350 µM (≈ 4550 µg/mL) in [10], 60 µM (≈ 37.2 µg/mL) in data set [19] and 930 µM (≈ 576 µg/mL) in data set [21]. Moreover, the Ratio amounted to 1 in [4], 2 in [13], 1 in data set [15] and 1 in data set [23]. Besides, the MBC in data set [5] worked out at 240 µM (≈ 149 µg/mL); in [14] it was 60 µM (≈ 37.2 µg/mL); in data set [17], 930 µM (≈ 576 µg/mL); in data set [20], 7350 µM (≈ 4550 µg/mL). Moreover, the half-inhibitory concentration (IC50) in [6] was more than 100 µM; in data set [7] it was more than 100 µM; in data set [8], more than 100 µM; in data set [9] it was more than 100 µM; in [18] it was more than 11.1 µM; in data set [22], more than 100 µM.

Turning to `CO[C@H]1/C=C/O[C@@]2(C)Oc3c(C)c(O)c4c(O)c(c(/C=N/N5CCN(C)CC5)c(O)c4c3C2=O)NC(=O)/C(C)=C\C=C\[C@H](C)[C@H](O)[C@@H](C)[C@@H](O)[C@@H](C)[C@H](OC(C)=O)[C@@H]1C` [RIFAMPIN], the MIC in [3] amounted to 80 µM (≈ 65.8 µg/mL); in data set [10] it was 610 µM (≈ 502 µg/mL); in data set [19], 300 µM (≈ 247 µg/mL); in data set [21] it was 300 µM (≈ 247 µg/mL). Moreover, the Ratio in data set [4] is listed as 1; in [13] it was 2.03; in data set [15], 1.88; in data set [23], 2.03. For the same molecule, the MBC in [5] is 150 µM (≈ 123 µg/mL); in [14], 300 µM (≈ 247 µg/mL); in data set [17] it was 610 µM (≈ 502 µg/mL); in data set [20], 610 µM (≈ 502 µg/mL).

Consider `CCOP(=O)(OCC)C(Nc1ccc(F)cc1)c1cc(Cn2cc(Cn3c(=O)cc(C)c4cc(F)ccc43)nn2)ccc1O` (centres undefined), for which the half-maximal cytotoxic concentration (CC50) in [1] was 29.3 µM; in data set [2], more than 100 µM; in data set [11], more than 100 µM; in [12] it was more than 100 µM; in data set [16], more than 100 µM. Further, the MIC in [3] was 500 µM (≈ 312 µg/mL); in data set [10], 8020 µM (≈ 5000 µg/mL); in data set [19], 130 µM (≈ 81.1 µg/mL); in [21], 1010 µM (≈ 630 µg/mL). Also, the Ratio came out at 1 in data set [4], 2 in data set [13], 1 in [15] and 1 in [23]. Also, the minimum bactericidal concentration (MBC) in data set [5] is 500 µM (≈ 312 µg/mL); in data set [14], 130 µM (≈ 81.1 µg/mL); in data set [17], 1010 µM (≈ 630 µg/mL); in [20], 8020 µM (≈ 5000 µg/mL). Further, the IC50 was more than 100 µM in [6]; more than 100 µM in data set [7]; more than 100 µM in data set [8]; more than 100 µM in data set [9]; more than 3.7 µM in data set [18]; more than 100 µM in data set [22].

By CC50 is commonly meant the concentration that lowers cell viability or growth by half. The term MIC denotes the smallest concentration in the dilution series that meets the test's criterion for growth inhibition. A word on the MBC: it is the lowest tested concentration that kills the bacteria rather than only halting them. Usually IC50 stands for the concentration at which inhibition is half-maximal.
